From BigSolDB 2.1

CC[C@@H](C(N)=O)N1CCCC1=O
solubility (mole fraction)
Conditions	in 1,4-dioxane	in acetone	in acetonitrile	in cyclohexane	in ethanol	in ethyl acetate	in isopropanol	in methanol	in n-propanol	in toluene
283.15 K	–	0.00698	0.00909	1.37e-05	0.0384	0.00424	0.0115	0.0814	0.0167	0.00122
288.15 K	0.00718	0.00887	0.0113	1.92e-05	0.0459	0.00539	0.0147	0.0974	0.0207	0.00167
293.15 K	0.00902	0.0111	0.0137	2.61e-05	0.0546	0.00676	0.0185	0.115	0.0252	0.0022
298.15 K	0.0112	0.014	0.0168	3.64e-05	0.0643	0.00847	0.0229	0.136	0.0303	0.00299
303.15 K	0.014	0.0175	0.0203	4.91e-05	0.0758	0.0104	0.0286	0.158	0.0362	0.00393
308.15 K	0.0173	0.0217	0.0245	6.61e-05	0.0885	0.0129	0.0354	0.182	0.0434	0.00524
313.15 K	0.0214	0.0268	0.0292	8.95e-05	0.103	0.0158	0.0435	0.209	0.052	0.00699
318.15 K	0.0263	0.033	0.035	0.00012	0.12	0.0194	0.0537	0.239	0.0614	0.00947
323.15 K	0.0322	0.0405	0.0416	0.00016	0.138	0.0236	0.0663	0.27	0.0729	0.0129
